Results on two molecules are retold here after paper PMC12489471, “A multi-dentate, cooperative interaction between endo- and exo-ribonucleases within the bacterial RNA degradosome” (Nucleic Acids Research, 2025).

The test system of one data set is PNPase core. The following applies: X-ray, PDB: 3GCM; cited from earlier work. An excerpt:
Previous studies identified a PNPase binding motif encompassing residues 1039–1061 at the very C-terminus of E. coli RNase E (Fig. 1). […] Following the β-strand, there is a stretch of eight residues containing three prolines and two charged amino acids. The RNase E residues 1048–1061 will be referred to as ‘β1 motif’ hereafter (Fig. 2A). Multiple sequence alignment s ...

Data set [1] concerns the molecule itself. The data set can be described thus: cryo-EM structure; purified PNPase core and RNase E-muGFP-CHis mixed 1:2, complex separated on Superdex 200 Increase in 20 mM Tris–HCl pH 8.0, 25 mM MgCl2, 150 mM KCl, 1 mM TCEP; 8 mM CHAPSO; E. coli and S. enterica proteins.

Turning to “RNase E residues 1021–1061: peptide encompassing RNase E residues 1021–1061 in crystal structure with PNPase (EAPRHSDWQRPTFAFEGKGAAGGHTATHHASAAPARPQPVE; UniProt P21513 1021-1061, looked up, fragment)”, in the data set with PNPase core, the “binding mode in crystal structure” value is reported as “forms a β-strand that extends an exposed β-sheet of the PNPase core”.

B1: S. enterica PNPase core (domain or fragment, Salmonella enterica serovar Typhimurium, UniProt Q8ZLT3 1-552, looked up)
chain: MLNPIVRKFQYGQHTVTLETGMMARQATAAVMVSMDDTAVFVTVVGQKKAKPGQDFFPLTVNYQERTYAAGRIPGSFFRREGRPSEGETLIARLIDRPVRPLFPEGFVNEVQVIATVVSVNPQVNPDIVAMIGASAALSLSGIPFNGPIGAARVGYINDQYVLNPTQDELKESKLDLVVAGTEAAVLMVESEAELLSEDTMLGAVVFGHEQQQVVIQAINDLVKEAGKPRWDWQPEAVNDALNARVAALAESRLSDAYRITDKQERYAQVDVIKSETIEQLIAEDETLDANELGEILHAIEKNVVRSRVLAGEPRIDGREKDMIRGLDVRTGVLPRTHGSALFTRGETQALVTATLGTARDAQVLDELMGERTDSFLFHYNFPPYSVGETGMVGSPKRREIGHGRLAKRGVLAVMPDMDKFPYTVRVVSEITESNGSSSMASVCGASLALMDAGVPIKAAVAGIAMGLVKEGDNYVVLSDILGDEDHLGDMDFKVAGSRDGISALQMDIKIEGITKEIMQVALNQAKGARLHILGVMEQAINAPRGDISEFA
notes: polynucleotide phosphorylase (PNPase) core, Salmonella enterica serovar Typhimurium, aa 1–552; also called Salmonella typhimurium polynucleotide phosphorylase core; source: E. coli Evo21(DE3), purified (Ni-NTA, intein cleavage, HIC, Q, Superdex 200); not shown: Mycobacterium xenopi GyrA intein, C-terminal, cleaved; His8, C-terminal, cleaved
B1: the stoichiometry N (usually the number of molecules, sites or subunits per partner or assembly) in data set [1] came out at 3.
